Measured values published in ChEMBL document CHEMBL1122316, “Different receptor sites mediate opioid agonism and antagonism” (J Med Chem, 1983).

Experiments:
[1] = target: Opioid receptors; mu/kappa/delta (Homo sapiens, UniProt P41145+P41143+P35372); experiment: Evaluated the ability to protect against the irreversible antagonism of morphines effects by beta-FNA in guinea pig ileal longitudinal muscle.; format: functional, tissue-based, Cavia porcellus, Muscle tissue
[2] = Compound was tested for ability to protect against the irreversible antagonism of morphine''s effects by beta-FNA in guinea pig ileum at 10 nM concentration, ratio is IC50 after treatment/control IC50; format: functional
[3] = Compound was evaluated for equilibrium constant, Ke; format: ADME
[4] = Compound was tested for ability to protect against the irreversible antagonism of morphine''s effects by beta-FNA in guinea pig ileum at 20 nM concentration; format: functional
[5] = Compound was tested for ability to protect against the irreversible antagonism of morphine''s effects by beta-FNA in guinea pig ileum at 2 nM concentration; format: functional
[6] = Effect of protecte expressed as morphine IC50 ratio (IC50 after treatment/control IC50) at 200 nM concentration; format: functional
[7] = Compound was tested for ability to protect against the irreversible antagonism of morphine''s effects by beta-FNA in guinea pig ileum at 1 uM concentration; format: functional
[8] = Compound was tested for ability to protect against the irreversible antagonism of morphine''s effects by beta-FNA in guinea pig ileum at 200 nM concentration; format: functional

SMILES | IC50 [1] [µM] | Ratio [2] | Ke [3] | Ratio [4] | Ratio [5] | Ratio [6] | Ratio [7] | Ratio [8]
CCOc1ccc2c(c1)C1(C)CCN(CC3CC3)C(C2=O)C1C (stereo unspecified) [ETHYLKETAZOCINE] | 0.0006 | 4.6 |  |  |  |  |  | 
O=C1CC[C@@]2(O)[C@H]3Cc4ccc(O)c5c4[C@@]2(CCN3CC2CC2)[C@H]1O5 [NALTREXONE] |  |  | 0.38 | 1 | 2.4 | 1 |  | 
C=CCN1CC[C@]23c4c5ccc(O)c4O[C@H]2C(=O)CC[C@@]3(O)[C@H]1C5 [NALOXONE] |  |  | 1.2 | 1.9 | 3.4 | 1.1 |  | 
COC(=O)/C=C/C(=O)N[C@@H]1CC[C@@]2(O)C3Cc4ccc(O)c5c4C2(CCN3C)C1O5 (stereo partly specified) | 0.022 |  |  |  |  |  | 5.2 | 
C=CCN1CC[C@]23c4c5ccc(O)c4O[C@H]2[C@@H](O)C=C[C@H]3[C@H]1C5 [NALORPHINE] | 0.028 |  | 4.5 |  |  |  | 1.4 | 1.9
